Paper PMC8587015, “AGSE: A Novel Grape Seed Extract Enriched for PP2A Activating Flavonoids That Combats Oxidative Stress and Promotes Skin Health” (Molecules, 2021)
Values joined by “and” are separate entries in the source; they are usually repeats but may differ in a detail not shown here. Identical values can stand only once. Like-named read-outs stand apart in the source and are kept apart here.

Molecular target: T1, PME-1 (Protein phosphatase methylesterase 1) (Homo sapiens, UniProt Q9Y570)
T1 sequence (Q9Y570 1-386): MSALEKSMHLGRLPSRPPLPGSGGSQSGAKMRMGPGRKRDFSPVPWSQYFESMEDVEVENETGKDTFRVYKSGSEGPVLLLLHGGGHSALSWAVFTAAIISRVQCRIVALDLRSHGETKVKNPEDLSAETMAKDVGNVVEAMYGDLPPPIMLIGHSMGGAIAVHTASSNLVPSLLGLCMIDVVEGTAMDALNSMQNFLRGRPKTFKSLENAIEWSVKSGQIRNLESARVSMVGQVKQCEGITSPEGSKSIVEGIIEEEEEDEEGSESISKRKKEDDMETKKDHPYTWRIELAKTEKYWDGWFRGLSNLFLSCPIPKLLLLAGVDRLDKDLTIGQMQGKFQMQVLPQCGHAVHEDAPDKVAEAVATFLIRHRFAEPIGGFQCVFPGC
Assay: Demethylation of PP2A by PME-1, radioactive filter binding assay
Format: biochemical
Conditions: for IC50: GSE flavonoids / grape seed components
Description: [^3H]-labeled methylated PP2A AC dimer was prepared by incubating PP2A, LCMT1 and [^3H]-SAM (PerkinElmer; Waltham, MA, USA) in 50 mM MOPS-Na (pH 7.2), 5 mM MgCl2, and 1 mM DTT at room temperature for 1 h. Demethylation of PP2A by PME-1 (Protein phosphatase methylesterase 1) was measured using the radioactive filter binding assay format. 20 nM PME-1 was incubated for 15 min with extract or compound, then 20 nM of [^3H]-labeled methylated PP2A AC dimer was added. Reactions were run at room temperature for 30 min then applied to a 96-well filter plate (MilliporeSigma; Burlington, MA, USA.) containing 30% TCA where proteins were precipitated and separated from the excess of [^3H]-SAM by washing with 70% ethanol. [^3H]-incorporation was measured using TopCount NXT scintillation counter (PerkinElmer; Waltham, MA, USA). IC50 values were generated from dose–response curves using a four-parameter logistic curve fit in SigmaPlot (Systat Software, Inc., Palo Alto, CA, USA).

[1] = read-out: IC50, PP2A demethylation activity assay

Row | Compound | IC50 [1] | further results
1 | Oc1cc(O)c2c(c1)O[C@H](c1ccc(O)c(O)c1)[C@@H](O)C2 [Catechin] | > 15 µM | 
2 | COc1cc(-c2oc3cc(O)cc(O)c3c(=O)c2O)cc(OC)c1OC [3,5,7-Trihydroxy-3′,4′,5′-Trimethoxyflavone] | > 15 µM | 
3 | Oc1cc(O)c2c(c1)O[C@H](c1ccc(O)c(O)c1)[C@@H](O)[C@@H]2c1c(O)cc(O)c2c1O[C@H](c1ccc(O)c(O)c1)[C@@H](O)C2 [Procyanidin B3] | > 35 µM | 
4 | COc1ccc(-c2oc3cc(O)cc(O)c3c(=O)c2O)cc1 [Kaempferide] | 2 µM | 
5 | O=c1cc(-c2ccc(O)cc2)oc2cc(O)cc(O)c12 [Apigenin] | > 15 µM | 
6 | C=C[C@@]1(C)CC(=O)[C@]2(O)[C@@]3(C)[C@@H](O)CCC(C)(C)[C@@H]3[C@H](O)[C@H](OC(C)=O)[C@@]2(C)O1 [Forskolin] | > 25 µM | 
7 | COc1cc(OC)c2c(c1)OC(c1ccc(O)cc1)CC2=O (stereo not drawn) [5,7-dimethoxy-4′hydroxyflavanone] | > 25 µM | 
8 | COc1ccc(-c2cc(=O)c3c(O)cc(O)c(-c4cc(-c5cc(=O)c6c(O)cc(OC)cc6o5)ccc4OC)c3o2)cc1 [Sciadopitysin] | 1.1 µM | 
9 | O=c1c(O)c(-c2ccc(O)c(O)c2)oc2c(O)c(O)cc(O)c12 [Gossypetin] | 4.9 µM | 
10 | COc1ccc(-c2coc3cc(O)cc(O)c3c2=O)cc1 [Biochanin a] | ~15 µM | 
11 | Oc1cc(O)c2cc(O)c(-c3cc(O)c(O)c(O)c3)[o+]c2c1 [Delphinidin] | 5.1 µM | 
12 | Oc1cc(O)c2c(c1)O[C@H](c1cc(O)c(O)c(O)c1)[C@H](O)C2 [Epigallocatechin] | > 15 µM | 
13 | O=C(O[C@@H]1Cc2c(O)cc(O)cc2O[C@@H]1c1cc(O)c(O)c(O)c1)c1cc(O)c(O)c(O)c1 [Epigallocatechin gallate] | 2.6 µM | 
14 | O=c1c(-c2ccc(O)cc2)coc2cc(O[C@@H]3O[C@H](CO)[C@@H](O)[C@H](O)[C@H]3O)ccc12 [Diadzin] | > 15 µM | 
15 | C[C@@H]1O[C@@H](OC[C@H]2O[C@@H](Oc3c(-c4ccc(O)c(O)c4)oc4cc(O)cc(O)c4c3=O)[C@H](O)[C@@H](O)[C@@H]2O)[C@H](O)[C@H](O)[C@H]1O [Rutin] | > 15 µM | 
16 | COP(=S)(OC)SCN1C(=O)c2ccccc2C1=O [Phosmet] |  | IC50 (IC50, PP2A demethylation activity assay): > 15 µM
17 | COc1c(O)cc2oc3cc(O)c(CC=C(C)C)c(O)c3c(=O)c2c1CC=C(C)C [Mangostine] | 1.7 µM | 
18 | COc1cc(O)c(C(=O)/C=C/c2ccc(O)cc2)c(OC)c1 [2′,4-dihydroxy-4′,6′-dimethoxychalcone] | > 25 µM | 
19 | CC(C)(O)[C@@H]1[C@H]2OC(=O)[C@@H]1[C@]1(O)C[C@H]3O[C@]34C(=O)O[C@H]2[C@]14C [Picrotin] | > 25 µM | 

Row | Compound | IC50 [1] | further results
20 | O=C(O[C@@H]1Cc2c(O)cc(O)cc2O[C@@H]1c1ccc(O)c(O)c1)c1cc(O)c(O)c(O)c1 [Epicatechin gallate] | 1.4 µM | 
21 | O=c1c(O)c(-c2ccc(O)c(O)c2)oc2cc(O)cc(O)c12 [Quercetin] | 2.5 µM | 
22 | Oc1cc(O)c2cc(O)c(-c3ccc(O)c(O)c3)[o+]c2c1 [Cyanidin chloride] | 4.3 µM | 
23 | O=c1cc(-c2ccc(O)c(O)c2)oc2cc(O)cc(O)c12 [Luteolin] | 1.7 µM | 
24 | C=CCc1ccc(O)c(OC)c1 [Eugenol] | > 15 µM | 
25 | O=c1cc(-c2ccccc2)oc2cc(O)c(O)c(O)c12 [Baicalein] | 3.4 µM | 
26 | Oc1cc(O)c2c(c1)O[C@H](c1ccc(O)c(O)c1)[C@H](O)[C@H]2c1c(O)cc(O)c2c1O[C@H](c1ccc(O)c(O)c1)[C@H](O)C2 [Procyanidin B2] | > 35 µM | 
27 | CC(C)NC(=O)N1CC(=O)N(c2cc(Cl)cc(Cl)c2)C1=O [Iprodione] | > 15 µM | 
28 | O=C(O)c1cc(O)c(O)c(O)c1 [Gallic acid] | > 15 µM | 
29 | COC(=O)Cc1cc(=O)oc2cc(OC)c(OC)cc12 [Methyl 6,7-dimethoxycoumarin-4-acetate] | > 25 µM | 
30 | Oc1ccc(/C=C/c2cc(O)cc(O)c2)cc1 [Resveratrol] | > 100 µM | activity in preventing PP2A demethylation (in words): does not function through this PP2A mechanism
31 | O=c1cc(-c2ccc(O)c(O)c2)oc2cc(O)c([C@@H]3O[C@H](CO)[C@@H](O)[C@H](O)[C@H]3O)c(O)c12 [Isoorientin] | > 25 µM | 
32 | CO/C=C(/C(=O)OC)c1ccccc1Oc1cc(Oc2ccccc2C#N)ncn1 [Azoxystrobin] | > 15 µM | 
33 | O=c1c(O[C@@H]2O[C@H](CO)[C@@H](O)[C@H](O)[C@H]2O)c(-c2ccc(O)c(O)c2)oc2cc(O)cc(O)c12 [Isoquercetin] | > 15 µM | 
34 | O=C1C[C@@H](c2ccc(O)c(O)c2)Oc2cc(O)cc(O)c21 [Eriodictyol] | > 25 µM | 
35 | COc1ccc(-c2coc3cc(O)ccc3c2=O)cc1 [Formonoetin] | > 15 µM | 
36 | O=c1c(-c2ccc(O)cc2)coc2cc(O)ccc12 [Diadzein] | > 15 µM | 
37 | Oc1cccc(O)c1O [Pyrogallol] | ~15 µM | 
38 | O=c1cc(-c2ccc(O)c(O)c2)oc2cc(O[C@@H]3O[C@H](CO)[C@@H](O)[C@H](O)[C@H]3O)cc(O)c12 [Luteolin 7-O-B-glucoside] | > 25 µM | 

Row | Compound | IC50 [1] | further results
39 | CC(=O)Oc1cc(O)c2c(c1)OC(c1ccc(OC(C)=O)c(OC(C)=O)c1)C(OC(C)=O)C2=O (stereo not drawn) [2-(acetyloxy)-4-[3,7-bis(acetyloxy)-5-hydroxy-4-oxo-3,4-dihydro-2H-chromen-2-yl]phenyl acetate] | > 15 µM | 
40 | O=c1c(O)c(-c2ccc(O)c(O)c2)oc2cc(O)c(O)c(O)c12 [Quercetagetin] | 0.5 µM and ~0.5 µM | 
41 | Oc1cc(O)cc(O)c1 [Phloroglucinol] | > 15 µM | 
42 | O=C(O)[C@H]1O[C@@H](Oc2cc3oc(-c4ccc(O)cc4)cc(=O)c3c(O)c2O)[C@H](O)[C@@H](O)[C@@H]1O [Scutellarin] | 4.9 µM | 
43 | Cc1ccc(O)c(O)c1 [4-methylcatechol] | > 15 µM | 
44 | COc1cc(-c2oc3cc(O)cc(O)c3c(=O)c2O)ccc1O [3,5,7,4′-Tetrahydroxy-3′-methoxyflavone] | > 15 µM | 
45 | O=C(O)/C=C/c1ccc(O)c(O)c1 [Caffeic Acid] | > 15 µM | 
46 | CCCCC(C#N)(Cn1cncn1)c1ccc(Cl)cc1 (stereo not drawn) [Myclobutanil] | > 15 µM | 
47 | Oc1cc(O)c2c(c1)O[C@H](c1ccc(O)c(O)c1)[C@H](O)[C@H]2c1c(O)cc(O)c2c1O[C@H](c1ccc(O)c(O)c1)[C@@H](O)C2 [Procyanidin B1] | > 35 µM | 
48 | C[C@@H]1O[C@@H](O[C@H]2[C@H](Oc3cc(O)c4c(c3)O[C@H](c3ccc(O)cc3)CC4=O)O[C@H](CO)[C@@H](O)[C@@H]2O)[C@H](O)[C@H](O)[C@H]1O [Naringin] | > 25 µM | 
49 | COc1cc(C(=O)O)cc(OC)c1O [Syringic acid] | > 15 µM | 
50 | O=c1cc(-c2ccc(O)c(O)c2)oc2c([C@@H]3O[C@H](CO)[C@@H](O)[C@H](O)[C@H]3O)c(O)cc(O)c12 [Orientin] | > 25 µM | 
51 | CC(C)(C)C(O)(CCc1ccc(Cl)cc1)Cn1cncn1 (stereo not drawn) [Tebuconazole] | > 15 µM | 
52 | O=c1c(O)c(-c2cc(O)c(O)c(O)c2)oc2cc(O)cc(O)c12 [Myricetin] | 0.99 µM | 
53 | C[C@@H]1O[C@@H](OC[C@H]2O[C@@H](Oc3cc(O)c4c(c3)O[C@H](c3ccc(O)cc3)CC4=O)[C@H](O)[C@@H](O)[C@@H]2O)[C@H](O)[C@H](O)[C@H]1O [Narirutin] | > 25 µM | 
54 | COc1cc(C(=O)O)ccc1O [Vanillic acid] | > 15 µM | 
55 | COc1ccc(-c2cc(=O)c3c(O)cc(O[C@@H]4O[C@H](CO[C@@H]5O[C@@H](C)[C@H](O)[C@@H](O)[C@H]5O)[C@@H](O)[C@H](O)[C@H]4O)cc3o2)cc1O [Diosmin] | ~25 µM | 
56 | O=c1c(O)c(-c2ccc(O)cc2O)oc2cc(O)cc(O)c12 [Morin] | > 15 µM | 
